Source: BindingDB's records for patent US20240010634 (H. Lee Moffitt Cancer Center and Research Institute, 2024)

Biological target: Activated CDC42 kinase 1 (Homo sapiens, UniProt Q07912)
Sequence (Q07912 whole entry): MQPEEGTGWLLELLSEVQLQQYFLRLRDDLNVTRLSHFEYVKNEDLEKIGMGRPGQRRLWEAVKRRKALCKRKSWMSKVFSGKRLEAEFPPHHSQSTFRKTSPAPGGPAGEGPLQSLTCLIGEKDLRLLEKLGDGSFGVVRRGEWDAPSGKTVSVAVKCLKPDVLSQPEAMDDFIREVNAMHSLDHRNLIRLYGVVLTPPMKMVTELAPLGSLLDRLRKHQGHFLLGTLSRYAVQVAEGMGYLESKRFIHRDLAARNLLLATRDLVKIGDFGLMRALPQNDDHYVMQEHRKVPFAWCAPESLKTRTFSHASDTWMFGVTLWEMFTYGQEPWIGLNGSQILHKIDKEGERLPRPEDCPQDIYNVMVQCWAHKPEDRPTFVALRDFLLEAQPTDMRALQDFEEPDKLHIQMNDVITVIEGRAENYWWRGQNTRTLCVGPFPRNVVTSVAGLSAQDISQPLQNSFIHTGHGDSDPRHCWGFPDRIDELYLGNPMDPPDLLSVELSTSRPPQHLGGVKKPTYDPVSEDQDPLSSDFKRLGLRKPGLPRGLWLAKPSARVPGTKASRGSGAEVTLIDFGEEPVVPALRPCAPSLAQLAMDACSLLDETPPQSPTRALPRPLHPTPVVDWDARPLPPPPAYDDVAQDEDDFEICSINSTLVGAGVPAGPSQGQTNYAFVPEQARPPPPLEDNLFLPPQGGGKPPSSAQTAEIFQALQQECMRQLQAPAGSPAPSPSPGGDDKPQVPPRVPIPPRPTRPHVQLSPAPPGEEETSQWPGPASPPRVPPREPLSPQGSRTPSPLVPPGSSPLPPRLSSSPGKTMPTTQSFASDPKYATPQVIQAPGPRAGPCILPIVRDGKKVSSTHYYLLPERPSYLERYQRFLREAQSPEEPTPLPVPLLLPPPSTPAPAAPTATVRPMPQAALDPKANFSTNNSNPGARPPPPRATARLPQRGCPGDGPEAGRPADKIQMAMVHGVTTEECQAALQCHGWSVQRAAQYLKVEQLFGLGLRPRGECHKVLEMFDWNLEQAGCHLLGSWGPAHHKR

Q: Which IC50 does the source give for COc1cc(N2CCN(C)CC2)ccc1Nc1ncc(Cl)c(Nc2ccc(NS(C)(=O)=O)cc2)n1 [US20240010634, Example 33] here?
A: 0.026 µM
